# Assay results as given in ChEMBL document CHEMBL1649265, “Antimicrobial susceptibilities of Mycoplasma genitalium strains examined by broth dilution and quantitative PCR” (2009).
# Legend:
# Assay type in all cases: functional
# Settings in all cases: Mycoplasmoides genitalium
# Mycoplasma genitalium [1] = assay: Antibacterial activity against Mycoplasma genitalium UTMB-10G by broth dilution method
# Mycoplasma genitalium [2] = assay: Antibacterial activity against Mycoplasma genitalium TW48-5G by broth dilution method
# Mycoplasma genitalium [3] = assay: Antibacterial activity against Mycoplasma genitalium by quantitative TaqMan PCR method
# Mycoplasma genitalium [4] = assay: Antibacterial activity against Mycoplasma genitalium M6283 by broth dilution method
# Mycoplasma genitalium [5] = assay: Antibacterial activity against Mycoplasma genitalium M6287 by broth dilution method
# Mycoplasma genitalium [6] = assay: Antibacterial activity against Mycoplasma genitalium M2282 by broth dilution method
# Mycoplasma genitalium [7] = assay: Antibacterial activity against Mycoplasma genitalium M2321 by broth dilution method
# Mycoplasma genitalium [8] = assay: Antibacterial activity against Mycoplasma genitalium TW10-6G by broth dilution method
# Mycoplasma genitalium [9] = assay: Antibacterial activity against Mycoplasma genitalium M6282 by broth dilution method
# Mycoplasma genitalium [10] = assay: Antibacterial activity against Mycoplasma genitalium by broth dilution method
# Mycoplasma genitalium [11] = assay: Antibacterial activity against Mycoplasma genitalium M6257 by broth dilution method
# Mycoplasma genitalium [12] = assay: Antibacterial activity against Mycoplasma genitalium M6328 by broth dilution method
# Mycoplasma genitalium [13] = assay: Antibacterial activity against Mycoplasma genitalium M6151 by broth dilution method
# Mycoplasma genitalium [14] = assay: Antibacterial activity against Mycoplasma genitalium M2341 by broth dilution method
# Mycoplasma genitalium [15] = assay: Antibacterial activity against Mycoplasma genitalium M6284 by broth dilution method
# Mycoplasma genitalium [16] = assay: Antibacterial activity against Mycoplasma genitalium TW10-5G by broth dilution method
# Mycoplasma genitalium [17] = assay: Antibacterial activity against Mycoplasma genitalium M2300 by broth dilution method
# Mycoplasma genitalium [18] = assay: Antibacterial activity against Mycoplasma genitalium M6090 by broth dilution method
# Mycoplasma genitalium [19] = assay: Antibacterial activity against Mycoplasma genitalium M6286 by broth dilution method
# Mycoplasma genitalium [20] = assay: Antibacterial activity against Mycoplasma genitalium M6280 by broth dilution method
# Mycoplasma genitalium [21] = assay: Antibacterial activity against Mycoplasma genitalium G37 by broth dilution method
# Mycoplasma genitalium [22] = assay: Antibacterial activity against Mycoplasma genitalium M6285 by broth dilution method
# Mycoplasma genitalium [23] = assay: Antibacterial activity against Mycoplasma genitalium M30 by broth dilution method
# Mycoplasma genitalium [24] = assay: Antibacterial activity against Mycoplasma genitalium R32 by broth dilution method
Structure (SMILES),MIC (Mycoplasma genitalium [1]; read-out: MIC),MIC (Mycoplasma genitalium [2]; read-out: MIC),MIC50 (Mycoplasma genitalium [3]),MIC90 (Mycoplasma genitalium [3]),MIC (Mycoplasma genitalium [4]),MIC (Mycoplasma genitalium [5]),MIC (Mycoplasma genitalium [6]),MIC (Mycoplasma genitalium [7]),MIC (Mycoplasma genitalium [8]; read-out: MIC),MIC (Mycoplasma genitalium [9]),MIC (Mycoplasma genitalium [11]),MIC (Mycoplasma genitalium [12]),MIC (Mycoplasma genitalium [13]),MIC (Mycoplasma genitalium [14]),MIC (Mycoplasma genitalium [15]),MIC (Mycoplasma genitalium [16]; read-out: MIC),MIC (Mycoplasma genitalium [17]),MIC (Mycoplasma genitalium [18]),MIC (Mycoplasma genitalium [19]),MIC (Mycoplasma genitalium [20]),also measured
CCn1cc(C(=O)O)c(=O)c2cc(F)c(N3CCNCC3)cc21 [NORFLOXACIN],0.032 µg/mL,0.032 µg/mL,≥ 8 µg/mL,≥ 8 µg/mL,0.001 µg/mL,0.001 µg/mL,0.001 µg/mL,0.001 µg/mL,0.032 µg/mL,0.001 µg/mL,0.001 µg/mL,0.001 µg/mL,0.001 µg/mL,0.001 µg/mL,0.001 µg/mL,0.032 µg/mL,0.001 µg/mL,0.001 µg/mL,0.001 µg/mL,0.001 µg/mL,MIC50 (Mycoplasma genitalium [10]; read-out: MIC50): 0.032 µg/mL; MIC90 (Mycoplasma genitalium [10]; read-out: MIC90): 0.064 µg/mL; MIC (Mycoplasma genitalium [21]; read-out: MIC): 0.032 µg/mL; MIC (Mycoplasma genitalium [22]): 0.001 µg/mL; MIC (Mycoplasma genitalium [23]; read-out: MIC): 0.032 µg/mL; MIC (Mycoplasma genitalium [24]; read-out: MIC): 0.032 µg/mL
CN(C)c1ccc(O)c2c1C[C@H]1C[C@H]3[C@H](N(C)C)C(O)=C(C(N)=O)C(=O)[C@@]3(O)C(O)=C1C2=O [MINOCYCLINE],0.031 µg/mL,0.031 µg/mL,,,0.063 µg/mL,0.063 µg/mL,0.063 µg/mL,0.063 µg/mL,0.031 µg/mL,0.063 µg/mL,0.063 µg/mL,0.063 µg/mL,0.063 µg/mL,0.063 µg/mL,0.063 µg/mL,0.031 µg/mL,0.063 µg/mL,0.063 µg/mL,0.063 µg/mL,0.063 µg/mL,MIC50 (Mycoplasma genitalium [10]; read-out: MIC50): 0.125 µg/mL; MIC90 (Mycoplasma genitalium [10]; read-out: MIC90): 0.25 µg/mL; MIC (Mycoplasma genitalium [21]; read-out: MIC): 0.031 µg/mL; MIC (Mycoplasma genitalium [22]): 0.063 µg/mL; MIC (Mycoplasma genitalium [23]; read-out: MIC): 0.031 µg/mL; MIC (Mycoplasma genitalium [24]; read-out: MIC): 0.031 µg/mL
CC[C@H]1OC(=O)[C@H](C)[C@@H](O[C@H]2C[C@@](C)(OC)[C@@H](O)[C@H](C)O2)[C@H](C)[C@@H](O[C@@H]2O[C@H](C)C[C@H](N(C)C)[C@H]2O)[C@](C)(OC)C[C@@H](C)C(=O)[C@H](C)[C@@H](O)[C@]1(C)O [CLARITHROMYCIN],,,0.032 µg/mL,0.063 µg/mL,,,,,,,,,,,,,,,,,MIC (Mycoplasma genitalium [1]): 0.002 µg/mL; MIC (Mycoplasma genitalium [2]): 0.002 µg/mL; MIC (Mycoplasma genitalium [8]): 0.002 µg/mL; MIC50 (Mycoplasma genitalium [10]): 0.004 µg/mL; MIC90 (Mycoplasma genitalium [10]): 0.008 µg/mL; MIC (Mycoplasma genitalium [16]): 0.002 µg/mL; MIC (Mycoplasma genitalium [21]): 0.002 µg/mL; MIC (Mycoplasma genitalium [23]): 0.002 µg/mL; MIC (Mycoplasma genitalium [24]): 0.002 µg/mL
CC[C@H]1OC(=O)[C@H](C)[C@@H](O[C@H]2C[C@@](C)(OC)[C@@H](O)[C@H](C)O2)[C@H](C)[C@@H](O[C@@H]2O[C@H](C)C[C@H](N(C)C)[C@H]2O)[C@](C)(O)C[C@@H](C)CN(C)[C@H](C)[C@@H](O)[C@]1(C)O [AZITHROMYCIN],,,0.004 µg/mL,0.008 µg/mL,,,,,,,,,,,,,,,,,MIC (Mycoplasma genitalium [1]): 0.001 µg/mL; MIC (Mycoplasma genitalium [2]): 0.001 µg/mL; MIC (Mycoplasma genitalium [8]): 0.001 µg/mL; MIC50 (Mycoplasma genitalium [10]): 0.001 µg/mL; MIC90 (Mycoplasma genitalium [10]): 0.002 µg/mL; MIC (Mycoplasma genitalium [16]): 0.001 µg/mL; MIC (Mycoplasma genitalium [21]): 0.001 µg/mL; MIC (Mycoplasma genitalium [23]): 0.001 µg/mL; MIC (Mycoplasma genitalium [24]): 0.001 µg/mL
O=C(O)c1cn(C2CC2)c2cc(N3CCNCC3)c(F)cc2c1=O [CIPROFLOXACIN],0.004 µg/mL,0.004 µg/mL,2 µg/mL,8 µg/mL,0.063 µg/mL,0.063 µg/mL,0.063 µg/mL,0.063 µg/mL,0.004 µg/mL,0.063 µg/mL,0.063 µg/mL,0.063 µg/mL,0.063 µg/mL,0.063 µg/mL,0.063 µg/mL,0.004 µg/mL,0.063 µg/mL,0.063 µg/mL,0.063 µg/mL,0.063 µg/mL,MIC (Mycoplasma genitalium [21]; read-out: MIC): 0.004 µg/mL; MIC (Mycoplasma genitalium [22]): 0.063 µg/mL; MIC (Mycoplasma genitalium [23]; read-out: MIC): 0.004 µg/mL; MIC (Mycoplasma genitalium [24]; read-out: MIC): 0.004 µg/mL
